# Measurements as given in patent publication US20240382601A1, “EMULSION FORMULATION HAVING HIGH FORMULATION STABILITY AND MANUFACTURING METHOD THEREOF” (AMOREPACIFIC CORPORATION, priority 2023, published 2024).
# What was measured:
# [1] = logP values of complex ingredients
# From the text: (§1) Among the above ingredients, the logP values of dipropylene glycol, diethoxyethyl 5 succinate.
# [2] = HLB values of surfactants; assay type: physicochemical
# From the text: as §1
compound,measurement,setting,value
CCOCCOC(=O)CCC(=O)OCCOCC [Diethoxyethyl succinate],logP,[1],0.25
CCCCCCCCCCCCOCCOCCO [Diethylene glycol lauryl ether],logP,[1],4
Polysorbate 20,HLB,[2],17
Polysorbate 60,HLB,[2],15
